{"source": "patent US20090270359A1", "about": "“SUBSTITUTED PYRAZOLE DERIVATIVES” (TAKEDA PHARMACEUTICAL COMPANY LIMITED, priority 2007, published 2009)", "key": {"[1]": {"system": "Human prostate cancer cells LNCaP-FGC", "experiment": "Prostate specific antigen (PSA) production inhibition test in prostate cancer cells", "assay_type": "cell-based", "settings": "compound 1 μM, testosterone 0.1 ng/m, PSA in culture supernatant after 3 days by ELISA, testosterone non-addition group 100%, addition group 0%; for inhibition at 1 µM: Homo sapiens, 72 h, read-out: Inhibitory rate (%) at 1 μM (PSA production suppression rate)", "experimental": "Human prostate cancer cells LNCaP-FGC were plated in a 24 well plate at 40000 cells/1000 μL/well, and testosterone (final concentration 0.1 ng/m) and the compound (1 μM) were added the next day. The concentration of PSA in the culture supernatant after 3 days from the addition was measured by ELISA, and the PSA production suppression rate was calculated with the testosterone non-addition group as 100% and the testosterone addition group as 0%."}, "[2]": {"target": "T1, wild type androgen receptor (AR) (Homo sapiens, UniProt P10275)", "T1 sequence (P10275 1-920)": "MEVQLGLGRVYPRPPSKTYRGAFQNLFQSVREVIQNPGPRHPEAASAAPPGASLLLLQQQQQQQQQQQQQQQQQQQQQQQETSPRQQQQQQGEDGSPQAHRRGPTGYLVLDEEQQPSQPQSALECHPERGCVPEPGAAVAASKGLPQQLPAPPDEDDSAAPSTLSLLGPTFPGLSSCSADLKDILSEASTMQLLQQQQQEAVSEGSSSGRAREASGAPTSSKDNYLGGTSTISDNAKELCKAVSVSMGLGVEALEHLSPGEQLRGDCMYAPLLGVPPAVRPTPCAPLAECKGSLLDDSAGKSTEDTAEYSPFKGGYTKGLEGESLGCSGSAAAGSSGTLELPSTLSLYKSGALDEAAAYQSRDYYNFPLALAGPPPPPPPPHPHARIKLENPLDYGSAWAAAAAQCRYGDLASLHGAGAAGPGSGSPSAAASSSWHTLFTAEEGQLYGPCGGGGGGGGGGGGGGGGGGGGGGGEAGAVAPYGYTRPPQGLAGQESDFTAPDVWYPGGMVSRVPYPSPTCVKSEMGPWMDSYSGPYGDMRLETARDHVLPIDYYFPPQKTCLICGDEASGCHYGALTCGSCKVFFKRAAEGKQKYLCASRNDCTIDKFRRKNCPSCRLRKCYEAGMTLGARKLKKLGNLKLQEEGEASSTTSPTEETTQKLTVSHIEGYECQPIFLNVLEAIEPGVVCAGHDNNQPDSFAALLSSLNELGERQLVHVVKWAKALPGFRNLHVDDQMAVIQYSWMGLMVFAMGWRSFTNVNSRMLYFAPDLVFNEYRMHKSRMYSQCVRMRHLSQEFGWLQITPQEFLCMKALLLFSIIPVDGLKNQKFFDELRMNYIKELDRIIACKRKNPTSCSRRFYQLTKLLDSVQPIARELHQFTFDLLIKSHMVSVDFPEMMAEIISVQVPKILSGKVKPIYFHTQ", "experiment": "AR-binding inhibition test, wild type (radio-labeled Mibolerone displacement)", "settings": "compound 1 μM; 3 nM radio-labeled Mibolerone; 4° C., 3 hours; dextran/charcoal method; read-out: Inhibitory rate (%) at 1 μM, wild type", "experimental": "(§1) To a solution of wild type or LNCaP type mutant androgen receptor (AR) was added 3 nM radio-labeled Mibolerone and final concentration 1 μM of the compound. The mixture was incubated at 4° C. for 3 hours, and B (Bound) and F (Free) Mibolerones were separated by the dextran/charcoal method. The label count of B was measured and the inhibition rate of the compound was calculated."}, "mutant AR (W741C)": {"target": "T2, mutant AR (W741C) (Homo sapiens, UniProt P10275, W742C)", "T2 construct": "expressed in transfected cells; host or cells: Cos-7", "T2 sequence (P10275 1-920 W742C)": "T1 sequence (P10275 1-920) with W742C", "experiment": "AR transcription inhibition test (luciferase reporter in Cos-7 cells)", "assay_type": "cell-based", "settings": "compound 1 μM, 0.1 μM DHT, luciferase activity after 24 hr, relative to control (0.1 μM DHT), read-out: Inhibitory rate (%) of mutant AR at 1 μM", "experimental": "Cos-7 cells (5,000,000 cells) were inoculated to a flask, and incubated in a culture medium (DMEM+10% Dextran Charcoal (DCC)−Fetal Bovine Serum (FBS) and 2 mM glutamine) for 24 hours. Then, a vector DNA harboring mutant AR (W741C) and a vector DNA containing a luciferase gene bound at the downstream of an androgen responsive promoter were cotransfected by a liposome method. After 4 hr, the medium was changed and, after culture for 3 hr, DHT (dihydrotestosterone) at the final concentration of 0.1 μM and the compound at the final concentration of 1 μM were added. After further culture for 24 hr, the luciferase activity was measured, and the AR transcription inhibitory activity of the compound was examined."}, "[3]": {"target": "T3, LNCaP type mutant androgen receptor (AR) (Homo sapiens, UniProt P10275, T878A)", "T3 sequence (P10275 1-920 T878A)": "T1 sequence (P10275 1-920) with T878A", "experiment": "AR-binding inhibition test, LNCaP type (radio-labeled Mibolerone displacement)", "settings": "compound 1 μM; 3 nM radio-labeled Mibolerone; 4° C., 3 hours; dextran/charcoal method; read-out: Inhibitory rate (%) at 1 μM, LNCaP type", "experimental": "as §1"}}, "note": "Substitutions are numbered along the chain they refer to."}
{"molecule": "Cc1nnc(-c2ccc(Cn3nc(C)c(-c4ccc(C#N)c(Cl)c4)c3C)cc2)o1", "note": "[Example 286, 2-chloro-4-{3,5-dimethyl-1-[4-(5-methyl-1,3,4-oxadiazol-2-yl)benzyl]-1H-pyrazol-4-yl}benzonitrile]", "values": [{"measurement": "inhibition at 1 µM", "setting": "[1]", "result": 107, "unit": "%"}, {"measurement": "inhibition at 1 µM", "setting": "[2]", "result": 85, "unit": "%"}, {"measurement": "inhibition at 1 µM", "setting": "mutant AR (W741C)", "result": 67, "unit": "%"}, {"measurement": "inhibition at 1 µM", "setting": "[3]", "result": 89, "unit": "%"}]}
{"molecule": "Cc1nn(Cc2ccc(F)c(C(N)=O)c2)c(C)c1-c1ccc(C#N)c(Cl)c1", "note": "[Example 77, 5-{[4-(3-chloro-4-cyanophenyl)-3,5-dimethyl-1H-pyrazol-1-yl]methyl}-2-fluorobenzamide]", "values": [{"measurement": "inhibition at 1 µM", "setting": "[1]", "result": 102, "unit": "%"}, {"measurement": "inhibition at 1 µM", "setting": "[2]", "result": 78, "unit": "%"}, {"measurement": "inhibition at 1 µM", "setting": "mutant AR (W741C)", "result": 92, "unit": "%"}, {"measurement": "inhibition at 1 µM", "setting": "[3]", "result": 68, "unit": "%"}]}
{"molecule": "Cc1nn(Cc2ccc(C(=O)NC3CC3)cc2)c(C)c1-c1ccc(C#N)c(Cl)c1", "note": "[Example 304, 4-{[4-(3-chloro-4-cyanophenyl)-3,5-dimethyl-1H-pyrazol-1-yl]methyl}-N-cyclopropylbenzamide]", "values": [{"measurement": "inhibition at 1 µM", "setting": "[1]", "result": 98.3, "unit": "%"}, {"measurement": "inhibition at 1 µM", "setting": "[2]", "result": 74, "unit": "%"}, {"measurement": "inhibition at 1 µM", "setting": "mutant AR (W741C)", "result": 36, "unit": "%"}, {"measurement": "inhibition at 1 µM", "setting": "[3]", "result": 82, "unit": "%"}]}
{"molecule": "Cc1nn(Cc2ccc(C(N)=O)nc2)c(C)c1-c1ccc(C#N)c(C(F)(F)F)c1", "note": "[Example 311, 5-({4-[4-cyano-3-(trifluoromethyl)phenyl]-3,5-dimethyl-1H-pyrazol-1-yl}methyl)pyridine-2-carboxamide]", "values": [{"measurement": "inhibition at 1 µM", "setting": "[1]", "result": 85.8, "unit": "%"}, {"measurement": "inhibition at 1 µM", "setting": "[2]", "result": 29, "unit": "%"}, {"measurement": "inhibition at 1 µM", "setting": "mutant AR (W741C)", "result": 17, "unit": "%"}, {"measurement": "inhibition at 1 µM", "setting": "[3]", "result": 29, "unit": "%"}]}
{"molecule": "Cc1nn(Cc2ccc(S(N)(=O)=O)cc2)c(C)c1-c1ccc(C#N)c(Cl)c1", "note": "[Example 322, 4-{[4-(3-chloro-4-cyanophenyl)-3,5-dimethyl-1H-pyrazol-1-yl]methyl}benzenesulfonamide]", "values": [{"measurement": "inhibition at 1 µM", "setting": "[1]", "result": 108, "unit": "%"}, {"measurement": "inhibition at 1 µM", "setting": "[2]", "result": 84, "unit": "%"}, {"measurement": "inhibition at 1 µM", "setting": "mutant AR (W741C)", "result": 24, "unit": "%"}, {"measurement": "inhibition at 1 µM", "setting": "[3]", "result": 83, "unit": "%"}]}
{"molecule": "Cc1nn(Cc2ccc(C(=O)NCC(C)(C)O)cc2)c(C)c1-c1ccc(C#N)c(Cl)c1", "note": "[Example 282, 4-{[4-(3-chloro-4-cyanophenyl)-3,5-dimethyl-1H-pyrazol-1-yl]methyl}-N-(2-hydroxy-2-methylpropyl)benzamide]", "values": [{"measurement": "inhibition at 1 µM", "setting": "[1]", "result": 80, "unit": "%"}, {"measurement": "inhibition at 1 µM", "setting": "[2]", "result": 58, "unit": "%"}, {"measurement": "inhibition at 1 µM", "setting": "mutant AR (W741C)", "result": 28, "unit": "%"}, {"measurement": "inhibition at 1 µM", "setting": "[3]", "result": 54, "unit": "%"}]}
{"molecule": "CNC(=O)c1ccc(Cn2nc(C)c(-c3ccc(C#N)c(Cl)c3)c2C)cn1", "note": "[Example 106, 5-{[4-(3-chloro-4-cyanophenyl)-3,5-dimethyl-1H-pyrazol-1-yl]methyl}-N-methylpyridine-2-carboxamide]", "values": [{"measurement": "inhibition at 1 µM", "setting": "[1]", "result": 110, "unit": "%"}, {"measurement": "inhibition at 1 µM", "setting": "[2]", "result": 49, "unit": "%"}, {"measurement": "inhibition at 1 µM", "setting": "mutant AR (W741C)", "result": 38, "unit": "%"}, {"measurement": "inhibition at 1 µM", "setting": "[3]", "result": 79, "unit": "%"}]}
{"molecule": "CC(O)(CS(=O)(=O)c1ccc(F)cc1)C(=O)Nc1ccc(C#N)c(C(F)(F)F)c1", "note": "(stereo not drawn) [bicartamide, reference compound]", "values": [{"measurement": "Inhibitory rate (%) at 1 μM (PSA production suppression rate)", "setting": "[1]", "result": 75.0, "unit": "%"}]}
{"molecule": "Cc1nn(Cc2ccc(C(N)=O)cc2)c(C)c1-c1ccc(C#N)c(Cl)c1F", "note": "[Example 337, 4-{[4-(3-chloro-4-cyano-2-fluorophenyl)-3,5-dimethyl-1H-pyrazol-1-yl]methyl}benzamide]", "values": [{"measurement": "inhibition at 1 µM", "setting": "[1]", "result": 104, "unit": "%"}, {"measurement": "inhibition at 1 µM", "setting": "[2]", "result": 71, "unit": "%"}, {"measurement": "inhibition at 1 µM", "setting": "mutant AR (W741C)", "result": 36, "unit": "%"}, {"measurement": "inhibition at 1 µM", "setting": "[3]", "result": 72, "unit": "%"}]}
{"molecule": "Cc1nn(Cc2cccc(C(N)=O)c2)c(C)c1-c1ccc(C#N)c(Cl)c1", "note": "[Example 68, 3-{[4-(3-chloro-4-cyanophenyl)-3,5-dimethyl-1H-pyrazol-1-yl]methyl}benzamide]", "values": [{"measurement": "inhibition at 1 µM", "setting": "[1]", "result": 95.4, "unit": "%"}, {"measurement": "inhibition at 1 µM", "setting": "[2]", "result": 76, "unit": "%"}, {"measurement": "inhibition at 1 µM", "setting": "mutant AR (W741C)", "result": 31, "unit": "%"}, {"measurement": "inhibition at 1 µM", "setting": "[3]", "result": 82, "unit": "%"}]}
{"molecule": "Cc1nn(Cc2ccc(C(N)=O)nc2)c(C)c1-c1ccc(C#N)c(Cl)c1", "note": "[Example 105, 5-{[4-(3-chloro-4-cyanophenyl)-3,5-dimethyl-1H-pyrazol-1-yl]methyl}pyridine-2-carboxamide]", "values": [{"measurement": "inhibition at 1 µM", "setting": "[1]", "result": 109, "unit": "%"}, {"measurement": "inhibition at 1 µM", "setting": "[2]", "result": 66, "unit": "%"}, {"measurement": "inhibition at 1 µM", "setting": "mutant AR (W741C)", "result": 32, "unit": "%"}, {"measurement": "inhibition at 1 µM", "setting": "[3]", "result": 75, "unit": "%"}]}
{"molecule": "Cc1nn(Cc2ccc(C(N)=O)cc2)c(C)c1-c1ccc(C#N)c(Cl)c1", "note": "[Example 69, 4-{[4-(3-chloro-4-cyanophenyl)-3,5-dimethyl-1H-pyrazol-1-yl]methyl}benzamide]", "values": [{"measurement": "inhibition at 1 µM", "setting": "[1]", "result": 107, "unit": "%"}, {"measurement": "inhibition at 1 µM", "setting": "[2]", "result": 88, "unit": "%"}, {"measurement": "inhibition at 1 µM", "setting": "mutant AR (W741C)", "result": 19, "unit": "%"}, {"measurement": "inhibition at 1 µM", "setting": "[3]", "result": 80, "unit": "%"}]}
